Assay results published in patent US8952128B2, “Somatostatin-dopamine chimeric analogs” (priority 2012, dated 2015).
Bridge positions count the residues as written; N and C are the ends. Square brackets hold non-standard residues; d marks the D form. Peptide text beside a SMILES is read from it. * marks the point of attachment. X2 = CN1C[C@H](CSCC(=O)*)C[C@@H]2c3cccc4[nH]cc(c34)C[C@H]21; 4Pal = N[C@@H](Cc1ccncc1)C(=O)O

Target: hSSTR2 (Homo sapiens (Human), UniProt P30874)
Experiment: Intracellular calcium mobilization assay (FLIPR Calcium 4), hSSTR2;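 note: agonist activity read as intracellular calcium rise in cells expressing human SSTR2, loaded with a calcium-sensitive dye for 60 min at 37 °C, measured by FLIPR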
Type: cell-based
Settings: for Emax: read-out: hSSTR2 % Emax ± SEM; for improvement in EC50 over Reference Compound A: Student's t-test, one-tailed, p <0.05
Experimental: The ability of select compounds according to the present invention to activate hSSTR2 and hDRD2 was determined by the intracellular calcium mobilization assay using FLIPR Calcium 4 assay kit (Molecular Devices).
Cells expressing hSSTR2 or hDRD2 were plated in 384-well microplates in tissue culture media and incubated for 16-24 hours at 37° C. in a humidified atmosphere with 5% CO2. Medium was replaced by loading buffer containing Hank's buffered saline, 20 mM HEPES, 2.5 mM probenecid and Calcium 4 dye, and the plates were incubated at 37° C. for 60 minutes.

hSSTR2, sequence (P30874 whole entry): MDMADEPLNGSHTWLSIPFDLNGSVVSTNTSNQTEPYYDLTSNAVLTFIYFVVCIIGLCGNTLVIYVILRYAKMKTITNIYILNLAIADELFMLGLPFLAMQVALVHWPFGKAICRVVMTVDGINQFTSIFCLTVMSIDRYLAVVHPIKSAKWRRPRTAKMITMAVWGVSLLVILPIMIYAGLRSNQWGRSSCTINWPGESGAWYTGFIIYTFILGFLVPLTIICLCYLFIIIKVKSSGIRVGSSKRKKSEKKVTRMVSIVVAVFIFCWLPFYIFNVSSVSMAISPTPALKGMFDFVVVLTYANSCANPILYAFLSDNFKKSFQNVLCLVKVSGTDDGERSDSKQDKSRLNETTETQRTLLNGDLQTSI

Row | Compound | Emax [%] | improvement in EC50 over Reference Compound A
1 | C[C@@H](O)[C@@H]1NC(=O)[C@H](CCCCN)NC(=O)[C@@H](Cc2c[nH]c3ccccc23)NC(=O)[C@H](Cc2ccccc2)NC(=O)[C@H](Cc2ccccc2)NC(=O)[C@H](CCCNC(=N)N)NC(=O)[C@H](NCCCC[C@@H]2C[C@@H]3c4cccc5[nH]cc(c45)C[C@H]3N(C)C2)CCCCNC(=O)[C@H](Cc2ccc(F)cc2)NC1=O [Compound 2, (D-6-methyl-8β-ergolinyl)-butanoyl-psi(CH2NH)-cyclo(DLys-Arg-Phe-Phe-DTrp-Lys-Thr-4FPhe)] | 100 ± 1.7 | 
2 | C[C@@H](O)[C@@H]1NC(=O)[C@H](CCCCN)NC(=O)[C@@H](Cc2c[nH]c3ccccc23)NC(=O)[C@H](Cc2ccccc2)NC(=O)[C@H](Cc2ccccc2)NC(=O)[C@H](CCCNC(=N)N)NC(=O)[C@H](NCCCCC[C@@H]2C[C@@H]3c4cccc5[nH]cc(c45)C[C@H]3N(C)C2)CCCCNC(=O)[C@H](Cc2ccc(F)cc2)NC1=O [Compound 3, (D-6-methyl-8β-ergolinyl)-pentanoyl-psi(CH2NH)-cyclo(DLys-Arg-Phe-Phe-DTrp-Lys-Thr-4FPhe)] | 98.8 ± 19.2 | 
3 | C[C@@H](O)[C@@H]1NC(=O)[C@H](CCCCN)NC(=O)[C@@H](Cc2c[nH]c3ccccc23)NC(=O)[C@H](Cc2ccccc2)NC(=O)[C@H](Cc2ccccc2)NC(=O)[C@H](CCCNC(=N)N)NC(=O)[C@H](NCCSC[C@@H]2C[C@@H]3c4cccc5[nH]cc(c45)C[C@H]3N(C)C2)CCCCNC(=O)[C@H](Cc2ccc(F)c(F)c2)NC1=O [Compound 6A, Dop1-psi(CH2NH)-cyclo(DLys-Arg-Phe-Phe-DTrp-Lys-Thr-3,4FPhe)] | 99.5 ± 2.6 | 
4 | C[C@@H](O)[C@@H]1NC(=O)[C@H](CCCCN)NC(=O)[C@@H](Cc2c[nH]c3ccccc23)NC(=O)[C@H](Cc2ccccc2)NC(=O)[C@H](Cc2ccccc2)NC(=O)[C@H](CCCNC(=N)N)NC(=O)[C@H](NCCSC[C@@H]2C[C@@H]3c4cccc5[nH]cc(c45)C[C@H]3N(C)C2)CCCCNC(=O)[C@H](Cc2cc(F)cc(F)c2)NC1=O [Compound 6B, Dop1-psi(CH2NH)-cyclo(DLys-Arg-Phe-Phe-DTrp-Lys-Thr-3,5FPhe)] | 95.2 ± 6.8 | 
5 | C[C@@H](O)[C@@H]1NC(=O)[C@H](CCCCN)NC(=O)[C@@H](Cc2c[nH]c3ccccc23)NC(=O)[C@H](Cc2ccccc2)NC(=O)[C@H](Cc2ccccc2)NC(=O)[C@H](CCCNC(=N)N)NC(=O)[C@H](NCCSC[C@@H]2C[C@@H]3c4cccc5[nH]cc(c45)C[C@H]3N(C)C2)CCCCNC(=O)[C@H](Cc2cccc(F)c2)NC1=O [Compound 6C, Dop1-psi(CH2NH)-cyclo(DLys-Arg-Phe-Phe-DTrp-Lys-Thr-3FPhe)] | 97.7 ± 6.9 | 
6 | C[C@@H](O)[C@@H]1NC(=O)[C@H](CCCCN)NC(=O)[C@@H](Cc2c[nH]c3ccccc23)NC(=O)[C@H](Cc2ccccc2)NC(=O)[C@H](Cc2ccccc2)NC(=O)[C@H](CCCNC(=N)N)NC(=O)[C@H](NCCSC[C@@H]2C[C@@H]3c4cccc5[nH]cc(c45)C[C@H]3N(C)C2)CCCCNC(=O)[C@H](Cc2ccccc2F)NC1=O [Compound 6D, Dop1-psi(CH2NH)-cyclo(DLys-Arg-Phe-Phe-DTrp-Lys-Thr-2FPhe)] | 96.9 ± 8.7 | 
7 | C[C@@H](O)[C@@H]1NC(=O)[C@H](CCCCN)NC(=O)[C@@H](Cc2c[nH]c3ccccc23)NC(=O)[C@H](Cc2ccccc2)NC(=O)[C@H](Cc2ccccc2)NC(=O)[C@H](CCCNC(=N)N)NC(=O)[C@H](NCCSC[C@@H]2C[C@@H]3c4cccc5[nH]cc(c45)C[C@H]3N(C)C2)CCCCNC(=O)[C@H](Cc2c(F)c(F)c(F)c(F)c2F)NC1=O [Compound 6E, Dop1-psi(CH2NH)-cyclo(DLys-Arg-Phe-Phe-DTrp-Lys-Thr-2,3,4,5,6FPhe)] | 90.4 ± 6.8 | 
8 | C[C@@H](O)[C@@H]1NC(=O)[C@H](CCCCN)NC(=O)[C@@H](Cc2c[nH]c3ccccc23)NC(=O)[C@H](Cc2ccccc2)NC(=O)[C@H](Cc2ccccc2)NC(=O)[C@H](CCCNC(=N)N)NC(=O)[C@H](NC[C@H](Cc2ccc(O)cc2)NC(=O)C[S+]([O-])C[C@@H]2C[C@@H]3c4cccc5[nH]cc(c45)C[C@H]3N(C)C2)CCCCNC(=O)[C@H](Cc2ccc(F)cc2)NC1=O (stereo partly drawn) [Compound 13, Dop1(SO)-Tyr-psi(CH2NH)-cyclo(DLys-Arg-Phe-Phe-DTrp-Lys-Thr-4FPhe)] | 100 ± 0.7 | 
9 | C[C@@H](O)[C@@H]1NC(=O)[C@H](CCCCN)NC(=O)[C@@H](Cc2c[nH]c3ccccc23)NC(=O)[C@H](Cc2ccccc2)NC(=O)[C@H](Cc2ccccc2)NC(=O)[C@H](CCCNC(=N)N)NC(=O)[C@H](NCC[S+]([O-])C[C@@H]2C[C@@H]3c4cccc5[nH]cc(c45)C[C@H]3N(C)C2)CCCCNC(=O)[C@H](Cc2ccc(F)cc2)NC1=O (stereo partly drawn) [Compound 14, Dop1(SO)-psi(CH2NH)-cyclo(DLys-Arg-Phe-Phe-DTrp-Lys-Thr-4FPhe)] | 102 ± 2.2 | 
10 | C[C@@H](O)[C@@H]1NC(=O)[C@H](CCCCN)NC(=O)[C@@H](Cc2c[nH]c3ccccc23)NC(=O)[C@H](Cc2ccncc2)NC(=O)[C@H](Cc2ccccc2)NC(=O)[C@H](CCCNC(=N)N)NC(=O)[C@H](NC[C@H](Cc2ccc(O)cc2)NC(=O)C[S+]([O-])C[C@@H]2C[C@@H]3c4cccc5[nH]cc(c45)C[C@H]3N(C)C2)CCCCNC(=O)[C@H](Cc2ccccc2)NC1=O (stereo partly drawn) [Compound 15, Dop1(SO)-Tyr-psi(CH2NH)-cyclo(DLys-Arg-Phe-4Pal-DTrp-Lys-Thr-Phe)] | 99.9 ± 1.9 | 
11 | C[C@@H](O)[C@@H]1NC(=O)[C@H](CCCCN)NC(=O)[C@@H](Cc2c[nH]c3ccccc23)NC(=O)[C@H](Cc2ccncc2)NC(=O)[C@H](Cc2ccccc2)NC(=O)[C@H](CCCNC(=N)N)NC(=O)[C@H](NC[C@H](CCCCNC(=O)C[S+]([O-])C[C@@H]2C[C@@H]3c4cccc5[nH]cc(c45)C[C@H]3N(C)C2)NC(=O)C[S+]([O-])C[C@@H]2C[C@@H]3c4cccc5[nH]cc(c45)C[C@H]3N(C)C2)CCCCNC(=O)[C@H](Cc2ccc(O)cc2)NC1=O (stereo partly drawn) [Compound 16, Dop1(SO)-Lys[Dop1(SO)]-psi(CH2NH)-cyclo(DLys-Arg-Phe-4Pal-DTrp-Lys-Thr-Tyr)] | 103 ± 2.3 | 
12 | C[C@@H](O)[C@@H]1NC(=O)[C@H](CCCCN)NC(=O)[C@@H](Cc2c[nH]c3ccccc23)NC(=O)[C@H](Cc2ccncc2)NC(=O)[C@H](Cc2ccccc2)NC(=O)[C@H](CCCNC(=N)N)NC(=O)[C@H](NC[C@H](CCCCNC(=O)C[S+]([O-])C[C@@H]2C[C@@H]3c4cccc5[nH]cc(c45)C[C@H]3N(C)C2)NC(=O)C[S+]([O-])C[C@@H]2C[C@@H]3c4cccc5[nH]cc(c45)C[C@H]3N(C)C2)CCCCNC(=O)[C@H](Cc2ccccc2)NC1=O (stereo partly drawn) [Compound 17, Dop1(SO)-Lys[Dop1(SO)]-psi(CH2NH)-cyclo(DLys-Arg-Phe-4Pal-DTrp-Lys-Thr-Phe)] | 105 ± 4.2 | 
13 | C[C@@H](O)[C@@H]1NC(=O)[C@H](CCCCN)NC(=O)[C@@H](Cc2c[nH]c3ccccc23)NC(=O)[C@H](Cc2ccccc2)NC(=O)[C@H](Cc2ccccc2)NC(=O)[C@H](CCCNC(=N)N)NC(=O)[C@H](NC[C@H](Cc2ccc(O)cc2)NC(=O)CS(=O)(=O)C[C@@H]2C[C@@H]3c4cccc5[nH]cc(c45)C[C@H]3N(C)C2)CCCCNC(=O)[C@H](Cc2ccc(F)cc2)NC1=O [Compound 19, Dop1(SO2)-Tyr-psi(CH2NH)-cyclo(DLys-Arg-Phe-Phe-DTrp-Lys-Thr-4FPhe)] | 99.5 ± 1.8 | 
14 | C[C@@H](O)[C@@H]1NC(=O)[C@H](CCCCN)NC(=O)[C@@H](Cc2c[nH]c3ccccc23)NC(=O)[C@H](Cc2ccncc2)NC(=O)[C@H](Cc2ccccc2)NC(=O)[C@H](CCCNC(=N)N)NC(=O)[C@H](NC[C@H](Cc2ccc(O)cc2)NC(=O)CS(=O)(=O)C[C@@H]2C[C@@H]3c4cccc5[nH]cc(c45)C[C@H]3N(C)C2)CCCCNC(=O)[C@H](Cc2ccccc2)NC1=O [Compound 21, Dop1(SO2)-Tyr-psi(CH2NH)-cyclo(DLys-Arg-Phe-4Pal-DTrp-Lys-Thr-Phe)] | 100 ± 1.8 | 
15 | CC(=O)N(CCCNC[C@@H]1C[C@@H]2c3cccc4[nH]cc(c34)C[C@H]2N(C)C1)[C@@H]1CCCCNC(=O)[C@H](Cc2ccc(F)cc2)NC(=O)[C@H]([C@@H](C)O)NC(=O)[C@H](CCCCN)NC(=O)[C@@H](Cc2c[nH]c3ccccc23)NC(=O)[C@H](Cc2ccccc2)NC(=O)[C@H](Cc2ccccc2)NC(=O)[C@H](CCCNC(=N)N)NC1=O [Compound 22, 3-[N-(D-6-methyl-8β-ergolinylmethyl)]-aminopropionyl-psi(CH2NAc)-cyclo(DLys-Arg-Phe-Phe-DTrp-Lys-Thr-4FPhe)] | 99.1 ± 12.6 | 
16 | C[C@@H](O)[C@@H]1NC(=O)[C@H](CCCCN)NC(=O)[C@@H](Cc2c[nH]c3ccccc23)NC(=O)[C@H](Cc2ccncc2)NC(=O)[C@H](Cc2ccccc2)NC(=O)[C@H](CCCNC(=N)N)NC(=O)[C@H](NCCSC[C@@H]2C[C@@H]3c4cccc5[nH]cc(c45)C[C@H]3N(C)C2)CCCCNC(=O)[C@H](Cc2ccccc2)NC1=O [Compound 23, Dop1-psi(CH2NH)-cyclo(DLys-Arg-Phe-4Pal-DTrp-Lys-Thr-Phe)] | 95.4 ± 3.3 | statistically significant improvement
17 | C[C@@H](O)[C@@H]1NC(=O)[C@H](CCCCN)NC(=O)[C@@H](Cc2c[nH]c3ccccc23)NC(=O)[C@H](Cc2ccncc2)NC(=O)[C@H](Cc2ccccc2)NC(=O)[C@H](CCCNC(=N)N)NC(=O)[C@H](NC(=O)CSC[C@@H]2C[C@@H]3c4cccc5[nH]cc(c45)C[C@H]3N(C)C2)CCCCNC(=O)[C@H](Cc2ccc(O)cc2)NC1=O [Compound 25, Dop1-cyclo(DLys-Arg-Phe-4Pal-DTrp-Lys-Thr-Tyr)] (X2-[dK]RF[4Pal][dW]KTY; lactam 1-C) | 93.9 ± 6.7 | statistically significant improvement
18 | C[C@@H](O)[C@@H]1NC(=O)[C@H](CCCCN)NC(=O)[C@@H](Cc2c[nH]c3ccccc23)NC(=O)[C@H](Cc2ccccc2)NC(=O)[C@H](Cc2ccccc2)NC(=O)[C@H](CCCNC(=N)N)NC(=O)[C@H](NCCSC[C@@H]2C[C@@H]3c4cccc5[nH]cc(c45)C[C@H]3N(C)C2)CCCCNC(=O)[C@H](Cc2ccccc2)NC1=O [Compound 26, Dop1-psi(CH2NH)-cyclo(DLys-Arg-Phe-Phe-DTrp-Lys-Thr-Phe)] | 90.2 ± 12.6 | 
